Test results reported in paper PMC7413254 (Nature Communications, 2020).
Several values for one entry are separate records, joined by “and”; a condition that tells them apart may be missing. Equal values may be shown once. Read-outs that look alike come from different tables or passages of the source.

Tests used:
[1] = tested on: PfCRT; test: Test of solutes as potential co-substrates for influx of VF-6 via PfCRT into the oocyte; format: cell-based, Plasmodium falciparum; set-up: key: X: Compounds that have been tested as potential co-substrates but are not required for influx of VF-6 via PfCRT into the oocyte; conditions: X = tested
[2] = molecular target: T1, PfCRT^3D7 (Plasmodium falciparum, UniProt Q8IBZ9); test: cell-based; format: cell-based
T1 sequence (Q8IBZ9 59-398): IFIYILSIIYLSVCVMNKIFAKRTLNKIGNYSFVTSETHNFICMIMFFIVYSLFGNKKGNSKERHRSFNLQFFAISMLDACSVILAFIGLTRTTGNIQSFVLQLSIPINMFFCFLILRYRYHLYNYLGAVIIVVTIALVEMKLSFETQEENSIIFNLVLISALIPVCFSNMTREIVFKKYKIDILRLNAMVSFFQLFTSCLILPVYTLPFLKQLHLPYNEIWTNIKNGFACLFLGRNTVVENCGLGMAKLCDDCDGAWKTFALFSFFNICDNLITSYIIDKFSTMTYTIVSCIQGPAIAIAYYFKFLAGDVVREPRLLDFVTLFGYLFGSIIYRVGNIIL
Summary of the method: (§1)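 Inward transport into oocyte cytosol from pH 5.5 medium models PfCRT efflux from the acidic digestive vacuole. Incubation 1.5 h, 27.5 °C; termination by ice-cold washes; lysate radioactivity counted.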

[3] = molecular target: T2, PfCRT^Ecu1110 (Plasmodium falciparum, UniProt Q9N623, A220S/I356L/K76T/N326D); test: [3H]CQ uptake into Xenopus oocytes, cis-inhibition by unlabelled solute; format: cell-based
T2 sequence (Q9N623 whole entry A220S/I356L/K76T/N326D): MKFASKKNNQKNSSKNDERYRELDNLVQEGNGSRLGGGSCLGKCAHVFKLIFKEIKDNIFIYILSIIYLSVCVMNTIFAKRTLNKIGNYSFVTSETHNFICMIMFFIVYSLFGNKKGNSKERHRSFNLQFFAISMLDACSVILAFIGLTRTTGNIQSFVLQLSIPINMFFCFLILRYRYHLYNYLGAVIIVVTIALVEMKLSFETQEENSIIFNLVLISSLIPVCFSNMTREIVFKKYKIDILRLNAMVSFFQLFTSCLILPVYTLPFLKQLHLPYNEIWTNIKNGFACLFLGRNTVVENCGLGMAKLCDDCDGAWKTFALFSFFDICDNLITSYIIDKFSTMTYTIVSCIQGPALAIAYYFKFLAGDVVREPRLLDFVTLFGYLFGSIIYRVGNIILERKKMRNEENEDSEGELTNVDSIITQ
Summary of the method: as §1

[4] = molecular target: T3, PfCRT^Dd2 (Plasmodium falciparum, UniProt Q9N623, A220S/I356T/K76T/M74I/N326S/N75E/Q271E/R371I); test: as above; format: cell-based
T3 sequence (Q9N623 whole entry A220S/I356T/K76T/M74I/N326S/N75E/Q271E/R371I): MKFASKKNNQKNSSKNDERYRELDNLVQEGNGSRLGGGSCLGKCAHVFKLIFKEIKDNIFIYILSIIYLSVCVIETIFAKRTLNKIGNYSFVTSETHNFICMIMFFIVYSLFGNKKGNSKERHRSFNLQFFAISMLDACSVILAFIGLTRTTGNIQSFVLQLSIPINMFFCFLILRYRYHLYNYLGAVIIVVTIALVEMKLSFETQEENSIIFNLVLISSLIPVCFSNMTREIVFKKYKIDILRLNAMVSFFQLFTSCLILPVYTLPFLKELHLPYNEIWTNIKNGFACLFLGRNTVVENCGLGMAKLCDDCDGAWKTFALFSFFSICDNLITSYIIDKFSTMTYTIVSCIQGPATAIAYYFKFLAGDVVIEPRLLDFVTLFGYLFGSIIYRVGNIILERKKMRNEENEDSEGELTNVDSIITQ
Summary of the method: as §1

[5] = tested on: non-expressing oocytes; test: cells; format: cell-based, Xenopus laevis; conditions: Xenopus laevis, Oocyte
Summary of the method: as §1

[6] = tested on: PfCRT; test: Influx of VF-6 via PfCRT into the oocyte, solutes tested as potential co-substrates; format: cell-based, Plasmodium falciparum; set-up: key: X: Compounds that have been tested as potential co-substrates but are not required for influx of VF-6 via PfCRT into the oocyte; conditions: X marks the solute
[7] = molecular target: T2, PfCRT^Ecu1110; test: cell-based; format: cell-based; conditions: […]
Summary of the method: (§2)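 Oocytes (ten per treatment, ≥4 independent frogs/days) were preloaded by injecting VF-6 in 25 nL ND96 at pH 5.0, 5.5, 6.0 or 7.0, or Na^+-free choline buffer, then uptake run 1.5 h, 27.5 °C, ND96 pH 5.5 by default. Internal concentrations assumed ~400 nL oocyte volume.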

[8] = molecular target: T1, PfCRT^3D7; test: cell-based; format: cell-based; remark: listed apart in the source
Summary of the method: as §2

[9] = molecular target: T3, PfCRT^Dd2; test: cell-based; format: cell-based; conditions: […]
Summary of the method: as §2

[10] = molecular target: T4, PfNT1 (Plasmodium falciparum, UniProt Q8IDM6); test: cell-based; format: cell-based; conditions: […]
T4 construct: expressed in transfected cells; host or cells: Xenopus laevis oocytes (stage V-VI), cRNA-injected
T4 sequence (Q8IDM6 whole entry): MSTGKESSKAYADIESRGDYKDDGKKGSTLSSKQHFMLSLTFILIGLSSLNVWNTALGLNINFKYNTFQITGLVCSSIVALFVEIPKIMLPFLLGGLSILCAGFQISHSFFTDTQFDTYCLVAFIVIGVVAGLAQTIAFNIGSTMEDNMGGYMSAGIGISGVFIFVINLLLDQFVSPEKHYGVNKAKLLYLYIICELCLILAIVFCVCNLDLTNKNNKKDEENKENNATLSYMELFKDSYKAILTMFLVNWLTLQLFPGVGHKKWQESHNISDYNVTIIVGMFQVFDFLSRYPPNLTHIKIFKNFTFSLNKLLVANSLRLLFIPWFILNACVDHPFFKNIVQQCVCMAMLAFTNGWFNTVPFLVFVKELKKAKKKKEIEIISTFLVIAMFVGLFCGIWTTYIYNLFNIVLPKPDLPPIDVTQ
Summary of the method: as §2

[11] = tested on: non-expressing oocytes; format: cell-based, Xenopus laevis
Summary of the method: as §2

[12] = read-out: Uptake of [3H]CQ (% PfCRT3D7 control), cis-inhibition
[13] = read-out: Uptake of [3H]CQ (% PfCRTDd2 control), cis-inhibition, PfCRT3D7, SEM
[14] = read-out: PfCRT-mediated [3H]CQ transport, cis-inhibition (% PfCRTEcu1110 control)
[15] = read-out: Uptake of [3H]CQ (% PfCRTDd2 control), cis-inhibition, PfCRTEcu1110, SEM
[16] = read-out: Uptake of [3H]CQ (% PfCRTEcu1110 control), cis-inhibition
[17] = read-out: [3H]CQ transport (% PfCRTEcu1110 control), cis-inhibition, PfCRTEcu1110, SEM
[18] = read-out: PfCRT-mediated [3H]CQ transport, cis-inhibition (% PfCRTDd2 control)
[19] = read-out: Uptake of [3H]CQ (% PfCRTDd2 control), cis-inhibition, PfCRTDd2, SEM
[20] = read-out: Uptake of [3H]CQ (% PfCRTDd2 control), cis-inhibition, non-expressing oocytes, SEM
[21] = read-out: Uptake of [3H]CQ (% non-expressing oocyte control), cis-inhibition
[22] = read-out: PfCRT-mediated [3H]CQ transport, trans-stimulation (% PfCRT3D7 control)
[23] = read-out: Uptake of [3H]CQ (% PfCRT3D7 control), trans-stimulation
[24] = read-out: Uptake of [3H]CQ (% PfCRTDd2 control), trans-stimulation, PfCRT3D7, SEM
[25] = read-out: Uptake of [3H]CQ (% PfCRTDd2 control), trans-stimulation, PfNT1, SEM
[26] = read-out: Uptake of [3H]CQ (% PfNT1 control), trans-stimulation

CSCC[C@H](N)C(=O)O [L-methionine]
Tested as potential co-substrate but not required for influx of VF-6 via PfCRT into the oocyte [1]: X | inhibition at 500 µM [2, 12]: 100 ± 3.6% | inhibition at 1000 µM [2, 12]: 100 ± 3.3% | inhibition at 2000 µM [2, 12]: 102 ± 2.5% | inhibition at 500 µM [2, 13]: 2.4 ± 0.07% | inhibition at 1000 µM [2, 13]: 2.2 ± 0.06% | inhibition at 2000 µM [2, 13]: 3.4 ± 0.07% | inhibition at 500 µM [3, 14]: 94 ± 4.4% | inhibition at 1000 µM [3, 14]: 95 ± 3.1% | inhibition at 2000 µM [3, 14]: 98 ± 1.5% | inhibition at 500 µM [3, 15]: 31 ± 1.5% | inhibition at 1000 µM [3, 15]: 32 ± 1.1% | inhibition at 2000 µM [3, 15]: 33 ± 1.2% | inhibition at 500 µM [3, 16]: 96 ± 2.5% | inhibition at 1000 µM [3, 16]: 97 ± 5.3% | inhibition at 2000 µM [3, 16]: 100 ± 2.5% | inhibition at 500 µM [3, 17]: 28 ± 0.5% | inhibition at 1000 µM [3, 17]: 29 ± 0.5% | inhibition at 2000 µM [3, 17]: 30 ± 0.5% | inhibition at 500 µM [4, 18]: 96 ± 3.6% | inhibition at 2000 µM [4, 18]: 95 ± 5.1% | inhibition at 500 µM [4, 19]: 98 ± 2.4% | inhibition at 1000 µM [4, 19]: 100 ± 2.1% | inhibition at 2000 µM [4, 19]: 97 ± 2.4% | inhibition at 500 µM [5, 20]: 2.7 ± 0.03% | inhibition at 1000 µM [5, 20]: 2.5 ± 0.01% | inhibition at 2000 µM [5, 20]: 2.9 ± 0.04% | inhibition at 500 µM [5, 21]: 99 ± 3.6% | inhibition at 1000 µM [5, 21]: 99 ± 3.5% | inhibition at 2000 µM [5, 21]: 101 ± 4.6% | Compounds that have been tested as potential co-substrates but are not required for influx of VF-6 via PfCRT into the oocyte [6]: X | activity at 5000 µM ([7]; pH 5.5, read-out: Uptake of [3H]CQ (% PfCRTEcu1110 control), trans-stimulation, PfCRTEcu1110 oocytes, [test solute]i = 5 mM, total [3H]CQ transport, normalised to the oocyte type control): 98 ± 2.1% | activity at 45000 µM ([7]; pH 5.5, read-out: Uptake of [3H]CQ (% PfCRTEcu1110 control), trans-stimulation, PfCRTEcu1110 oocytes, [test solute]i = 45 mM (30 mM for some solutes due to solubility), total [3H]CQ transport, normalised to the oocyte type control): 100 ± 3.2% | activity at 5000 µM ([7]; read-out: Uptake of [3H]CQ (% PfCRTDd2 control), trans-stimulation, PfCRTEcu1110, total [3H]CQ transport, [test solute]i = 5 mM (intracellular), mean ± SEM, SEM): 35 ± 1.3% | activity at 45000 µM ([7]; read-out: Uptake of [3H]CQ (% PfCRTDd2 control), trans-stimulation, PfCRTEcu1110, total [3H]CQ transport, [test solute]i = 45 mM (intracellular; 30 mM for some solutes due to solubility), mean ± SEM, SEM): 36 ± 2.2% | [3H]CQ transport (% PfCRT3D7 control), trans-stimulation, PfCRT3D7 ([8]; SEM): 0.3 ± 0.03 % PfCRT3D7 control | activity at 5000 µM [8, 22]: 97 ± 2.1% | activity at 45000 µM [8, 22]: 97 ± 2.7% | activity at 5000 µM [8, 23]: 99 ± 3.6% | activity at 45000 µM [8, 23]: 99 ± 3.1% | activity at 5000 µM [8, 24]: 3.3 ± 0.03% | activity at 45000 µM [8, 24]: 3.3 ± 0.02% | activity at 5000 µM ([9]; pH 5.5, read-out: Uptake of [3H]CQ (% PfCRTDd2 control), trans-stimulation, PfCRTDd2, total [3H]CQ transport, [test solute]i = 5 mM (intracellular), mean ± SEM, SEM): 100 ± 3.2% | activity at 5000 µM ([9]; pH 5.5, read-out: Uptake of [3H]CQ (% PfCRTDd2 control), trans-stimulation, PfCRTDd2 oocytes, [test solute]i = 5 mM, total [3H]CQ transport, normalised to the oocyte type control): 100 ± 3.2% | activity at 45000 µM ([9]; pH 5.5, read-out: Uptake of [3H]CQ (% PfCRTDd2 control), trans-stimulation, PfCRTDd2 oocytes, [test solute]i = 45 mM (30 mM for some solutes due to solubility), total [3H]CQ transport, normalised to the oocyte type control): 99 ± 1% | activity at 5000 µM [10, 25]: 2.2 ± 0.06% | activity at 45000 µM [10, 25]: 2.7 ± 0.04% | activity at 5000 µM [10, 26]: 100 ± 2.5% | activity at 45000 µM [10, 26]: 99 ± 2.6% | Uptake of [3H]CQ (% non-expressing oocyte control), trans-stimulation [11]: 99 ± 3.8 % non-expressing oocyte control and 98 ± 4.2 % non-expressing oocyte control | Uptake of [3H]CQ (% PfCRTDd2 control), trans-stimulation, non-expressing oocytes ([11]; SEM): 2.4 ± 0.02 % PfCRTDd2 control and 2.8 ± 0.03 % PfCRTDd2 control
